The values below come from patent US6316500A, “Aliphatically unsaturated hydroxy benzoates and preservative compositions thereof” (ISP Investments Inc., priority 1999, dated 2001).

The structures appear in SMILES notation.

The conditions of data set [1]: about 10 ppm, beer preservative; cited from earlier work.
The test system of a further data set is A. niger 16404. Put plainly: Activity test: preservative challenge test in emulsion, A. niger 16404. Format: cell-based. Particulars: for number of colonies per milliliter, 28 days: reinoculated at 21 days. The procedure: (§1) The emulsion was prepared by separately mixing components in phase A and phase B at 75-80° C. for 15 minutes. The phases were then combined and mixed for another 10 minutes and cooled to 45° C. with stirring. Preservative was then added followed by citric acid to adjust pH to from abut 6.5 to 7.5. Stirring of the resulting mixture was continued until a temperature of 30° C. was reached. The activity tests were carried out using the following microorganisms: A. niger, B. cepacia, C. albicans, E. coli, P. aeruginosa and S. aureus. 50 g aliquots of the test emulsion containing various amounts of the preservative admixture as reported in Tables I-V were inoculated with approximately 10^7 -10^8 of the test organisms. The test samples then were stirred to disperse the challenge inoculum. The samples were incubated and assayed at 48 hours, 7, 14, 21 and 28 days. The assays were performed on 1 g, of the test sample by serially diluting 10^3 to 10^6 of the original concentration. The plating medium for bacteria was Letheen agar and for fungi it was low pH Mycophil agar with Tween 20. Each plated sample was incubated for 48 hours at 37° C. for bacteria, 5 days at 25° C. for mold and 3 days at 25° C. for fungi. After incubation, readings of the number of colonies per milliliter (cfu/ml) were made results were determined, as reported in associated Tables IA-VA. At 21 days the test product was reinoculated with half of the original inoculum.

The test system of a further data set is B. cepacia 25416. The experiment in a line: Activity test: preservative challenge test in emulsion, B. cepacia 25416. Format: cell-based. Particulars: for number of colonies per milliliter, 28 days: reinoculated at 21 days. On the procedure:
as §1

The test system of another data set is C. albicans 10231. The experiment in a line: Activity test: preservative challenge test in emulsion, C. albicans 10231. The data set is classed as cell-based. Particulars: for number of colonies per milliliter, 28 days: reinoculated at 21 days. The procedure:
as §1

The test system of a further data set is E. coli 8739. The experiment in a line: Activity test: preservative challenge test in emulsion, E. coli 8739. The following applies: for number of colonies per milliliter, 28 days: reinoculated at 21 days. Format: cell-based. On the procedure:
as §1

The subject of the next data set is P. aeruginosa 9027. Put plainly: Activity test: preservative challenge test in emulsion, P. aeruginosa 9027. Format: cell-based. Particulars: for number of colonies per milliliter, 28 days: reinoculated at 21 days. On the procedure: as §1
A further data set concerns S. aureus 6538. Put plainly: Activity test: preservative challenge test in emulsion, S. aureus 6538. Format: cell-based. Particulars: for number of colonies per milliliter, 28 days: reinoculated at 21 days. The procedure: as §1

With `CCCCCCCOC(=O)c1ccc(O)cc1` [heptyl p-hydroxybenzoate], the solubility in beer result in data set [1] is “limited solubility in beer so that the beer becomes turbid at about 0 °C”.

In the case of `C#CCOC(=O)c1ccc(O)cc1O` [Propargyl 2,4-Dihydroxybenzoate], the “number of colonies per milliliter, 48 hr” value is 3500 cfu/ml with A. niger 16404 (0.2% preservative in emulsion); less than 10 cfu/ml in the data set with B. cepacia 25416 (0.2% preservative in emulsion); 540 cfu/ml with C. albicans 10231 (0.2% preservative in emulsion); less than 10 cfu/ml in the data set on E. coli 8739 (0.2% preservative in emulsion); less than 10 cfu/ml with P. aeruginosa 9027 (0.2% preservative in emulsion); less than 10 cfu/ml in the data set with S. aureus 6538 (0.2% preservative in emulsion). Further, the “number of colonies per milliliter, 7 days” value with A. niger 16404 (0.2% preservative in emulsion), in the data set on B. cepacia 25416 (0.2% preservative in emulsion), in the data set with C. albicans 10231 (0.2% preservative in emulsion), with E. coli 8739 (0.2% preservative in emulsion), in the data set with P. aeruginosa 9027 (0.2% preservative in emulsion) and in the data set with S. aureus 6538 (0.2% preservative in emulsion) was less than 10 cfu/ml throughout. The “number of colonies per milliliter, 14 days” value in the data set on A. niger 16404 (0.2% preservative in emulsion), in the data set on B. cepacia 25416 (0.2% preservative in emulsion), in the data set on C. albicans 10231 (0.2% preservative in emulsion), in the data set with E. coli 8739 (0.2% preservative in emulsion), with P. aeruginosa 9027 (0.2% preservative in emulsion) and in the data set on S. aureus 6538 (0.2% preservative in emulsion) was less than 10 cfu/ml each time. In addition, the “number of colonies per milliliter, 21 days” value in the data set with A. niger 16404 (0.2% preservative in emulsion), with B. cepacia 25416 (0.2% preservative in emulsion), in the data set with C. albicans 10231 (0.2% preservative in emulsion), in the data set on E. coli 8739 (0.2% preservative in emulsion), with P. aeruginosa 9027 (0.2% preservative in emulsion) and in the data set with S. aureus 6538 (0.2% preservative in emulsion) was less than 10 cfu/ml each time. Further, the “number of colonies per milliliter, 28 days” value in the data set on A. niger 16404 (0.2% preservative in emulsion), in the data set with B. cepacia 25416 (0.2% preservative in emulsion), in the data set on C. albicans 10231 (0.2% preservative in emulsion), with E. coli 8739 (0.2% preservative in emulsion), with P. aeruginosa 9027 (0.2% preservative in emulsion) and in the data set on S. aureus 6538 (0.2% preservative in emulsion) was less than 10 cfu/ml throughout.

`CC=CC=CCOC(=O)c1ccc(O)cc1` [2,4-Hexadienyl-4-Hydroxybenzoate]: the “number of colonies per milliliter, 48 hr” value was 4800 cfu/ml with A. niger 16404 (0.5% preservative in emulsion); < 10^6 cfu/ml in the data set on B. cepacia 25416 (0.5% preservative in emulsion); less than 10 cfu/ml with C. albicans 10231 (0.5% preservative in emulsion); less than 10 cfu/ml in the data set with E. coli 8739 (0.5% preservative in emulsion); less than 10 cfu/ml in the data set with P. aeruginosa 9027 (0.5% preservative in emulsion); less than 10 cfu/ml in the data set with S. aureus 6538 (0.5% preservative in emulsion). Further, the “number of colonies per milliliter, 7 days” value was less than 10 cfu/ml in the data set with A. niger 16404 (0.5% preservative in emulsion); < 10^6 cfu/ml with B. cepacia 25416 (0.5% preservative in emulsion); less than 10 cfu/ml with C. albicans 10231 (0.5% preservative in emulsion); less than 10 cfu/ml in the data set with E. coli 8739 (0.5% preservative in emulsion); less than 10 cfu/ml in the data set on P. aeruginosa 9027 (0.5% preservative in emulsion); less than 10 cfu/ml with S. aureus 6538 (0.5% preservative in emulsion). For the same molecule, the “number of colonies per milliliter, 14 days” value in the data set with A. niger 16404 (0.5% preservative in emulsion) is reported as less than 10 cfu/ml; with B. cepacia 25416 (0.5% preservative in emulsion), < 10^6 cfu/ml; with C. albicans 10231 (0.5% preservative in emulsion), less than 10 cfu/ml; in the data set with E. coli 8739 (0.5% preservative in emulsion), less than 10 cfu/ml; with P. aeruginosa 9027 (0.5% preservative in emulsion) it was less than 10 cfu/ml; in the data set with S. aureus 6538 (0.5% preservative in emulsion), less than 10 cfu/ml. Further, the “number of colonies per milliliter, 21 days” value is less than 10 cfu/ml in the data set on A. niger 16404 (0.5% preservative in emulsion); < 10^6 cfu/ml with B. cepacia 25416 (0.5% preservative in emulsion); less than 10 cfu/ml in the data set on C. albicans 10231 (0.5% preservative in emulsion); less than 10 cfu/ml in the data set on E. coli 8739 (0.5% preservative in emulsion); less than 10 cfu/ml in the data set with P. aeruginosa 9027 (0.5% preservative in emulsion); less than 10 cfu/ml in the data set with S. aureus 6538 (0.5% preservative in emulsion). For the same molecule, the “number of colonies per milliliter, 28 days” value in the data set with A. niger 16404 (0.5% preservative in emulsion) is recorded as less than 10 cfu/ml; in the data set on B. cepacia 25416 (0.5% preservative in emulsion), < 10^6 cfu/ml; in the data set on C. albicans 10231 (0.5% preservative in emulsion) it was less than 10 cfu/ml; with E. coli 8739 (0.5% preservative in emulsion), less than 10 cfu/ml; in the data set with P. aeruginosa 9027 (0.5% preservative in emulsion), less than 10 cfu/ml; in the data set with S. aureus 6538 (0.5% preservative in emulsion), less than 10 cfu/ml.
